Measured values from US20060240026A1, “Preventing and/or remedy hematopoietic tumor” (GREEN PEPTIDE CO., LTD., priority 2003, published 2006).
“And” between values parts separate entries of the source, which are not always exact repeats. Equal entries are not always repeated. “Also recorded” adds a separate entry of the source. Ends that are not written are not given here.

Assays:
[1] = test system: HLA-A24+ hematologic malignant cell line (PEER, REH); assay: 51Cr-release test of peptide-stimulated PBMCs against HLA-A24+ malignant line; format: cell-based, human; details: peptide-stimulated patient PBMCs further cultured with IL-2, effector/target 3, 10 or 30, 6 h
Description: (§1) Then, the cytotoxicity against hematologic malignant cell lines was examined by a standard ^51Cr-release test (Non-Patent Reference 5). Specifically, the PBMCs obtained were used as an effector to mix with ^51Cr-labelled target cells (hereinafter referred to as targets) at an effector/target rate of 3, 10 or 30, and then incubated for six hours, followed by measuring the radioactivity of ^51Cr released in the supernatants. The results obtained were indicated as % lysis which was calculated by regarding a radioactivity as 100% when the targets were completely dissolved. The following targets were used: PEER, an HLA-A24^+ hematologic malignant cell line; HPB-MLT, an HLA-A24^− hematologic malignant cell line; and an HLA-A24^+ PHA blastoid T-cell.

[2] = test system: PBMCs of HLA-A24+ patients with hematologic malignancies; assay: IFN-γ production by peptide-stimulated patient PBMCs in response to peptide-pulsed C1R-A24 cells; format: cell-based, human; set-up: peptide-specific IFN-γ production: unit not given here; details: for peptide-specific IFN-γ production: 10 μM peptide in vitro, vs peptide-pulsed C1R-A24, HIV-peptide background subtracted; for Responding case/total (enhancement of IFN-γ production): ten HLA-A24+ patients with hematologic malignancies
Description: The induction of peptide-specific cytotoxic T lymphocytes from PBMCs of a patient with hematologic malignancy was conducted as reported preveously (Non-Patent Reference 5). The following peptides were used to induce cytotoxic T lymphocytes: p56^lck protein-derived peptides (Lck208 (SEQ ID NO: 1), Lck488 (SEQ ID NO: 2) and Lck486 (SEQ ID NO: 3)); SART-1-derived peptide (SART-1690 (SEQ ID NO: 4)); SART-2-derived peptides (SART-293 (SEQ ID NO: 5), SART-2161 (SEQ ID NO: 6) and SART-2899 (SEQ ID NO: 7)); SART-3-derived peptides (SART-3109 (SEQ ID NO: 8) and SART-3315 (SEQ ID NO: 9)); and ART-1-derived peptide (ART-1170 (SEQ ID NO: 10)). All of these peptides are the epithelial cancer-related antigen-derived peptides and have the ability to induce cytotoxic T lymphocytes from PBMCs of an epithelial cancer patient in an HLA-A24 dependent manner (Non-Patent References 3-6 and 12). A human immunodeficiency virus (HIV)-derived peptide (SEQ ID NO: 11) and Epstein-Barr virus (EBV)-derived peptide (SEQ ID NO: 12) were used respectively as a negative control peptide and positive control peptide both of which have an HLA-A24-binding motif. […] PBMCs were prepared from peripheral blood that was collected from a patient with hematologic malignancy using Ficoll-Conray density-gradient centrifugation. The expression of HLA-A24 molecules on PBMCs was determined using flow cytometry by a well known method (Non-Patent Reference 5). The induction of cytotoxic T lymphocytes from PBMCs was conducted as follows. […] The culture medium consisted of 45% RPMI-1640, 45% AIM-V (Invitrogen), 10% FCS, 100 U/ml of interleukin-2 (IL-2), and 0.1 mM MEM non-essential amino acid solution (Invitrogen). […] The background IFN-γ production in response to the HIV-derived peptide (SEQ ID NO: 11) was subtracted from the values given in the data. When the mean value of the IFN-γ produced from the peptide-stimulated PBMCs in response to a corresponding peptide was higher than that produced in response to the HIV peptide (SEQ ID NO: 11), it was judged that the precursor of a peptide-specific cytotoxic T lymphocyte was present in the PBMCs and that the peptide-specific cytotoxic T lymphocytes were induced by the peptide. PBMCs of ten cases of HLA-A24^+ patients with hematologic malignancies (two cases with CLL, one case with MCL, one case with NHL, one case with B-ALL, one case with MM, one case with MDS, two cases with ATL, and one case with T-ALL) were tested for the induction of cytotoxic T lymphocytes using peptides that were derived from p56^lck protein, SART-1, SART-2, SART-3 and ART-1. The peptides used were the peptides that induced peptide-specific tumor-reactive cytotoxic T lymphocytes from PBMCs of an HLA-A24^+ epithelial cancer patient, which are currently on clinical trials for use as vaccines for epithelial cancer patients. The PBMCs were stimulated with the peptide in vitro to measure the peptide-specific IFN-γ production.

[3] = test system: HLA-A24- hematologic malignant cell line (HPB-MLT); assay: 51Cr-release test of peptide-stimulated PBMCs against HLA-A24- malignant line; format: cell-based, human; details: peptide-stimulated patient PBMCs further cultured with IL-2; effector/target 3, 10 or 30; 6 h
Description: as §1

[4] = test system: HLA-A24+ PHA blastoid T-cell; assay: 51Cr-release test of peptide-stimulated PBMCs against normal cells; format: cell-based, human; details: peptide-stimulated patient PBMCs further cultured with IL-2; effector/target 3, 10 or 30; 6 h
Description: as §1

[5] = test system: C1R-A24 cells pulsed with the peptides; assay: Peptide-specific cytotoxic activity of PBMCs of vaccinated multiple myeloma patient (51Cr-release); format: in vivo, human; details: for peptide-specific cytotoxic activity of PBMCs: MM patient No. 6, PBMCs acquired after the sixth vaccination; for cytotoxic activity (% lysis) against C1R-A24 cells pulsed with corresponding peptide: MM patient No. 6, with the increasing number of peptide vaccination
From the text: The patient (patient No. 6 in table 2) subjected to clinical trials was a HLA-A24^+ […] suffering from IgA-type multiple myeloma with a stage III by Durie & Salmon's classification. The patient received multiple cycles of chemotherapy before participating in this clinical test and had acquired the resistance to chemotherapy. However, for four weeks before peptide vaccination, the patient had not received chemotherapy and administration with steroid or any other immunosuppressive drugs.
Three kinds of emulsions each of which contains each of these peptides respectively and an adjuvant were prepared according to the method described in Example 1, and vaccinated to the patient by injecting subcutaneously at different sites of the patient's lateral thigh. […] The skin test was conducted by injecting intradermally the solution of 50 μg of each peptide in physiological saline and determining immediate-type or delayed-type hypersensitivity reaction at 20 minutes or 24 hours after the injection.
The vaccinations were conducted seven times every two weeks using SART-1690 (SEQ ID NO: 4), Lck488 (SEQ ID NO: 2) and ART-1170 (SEQ ID NO: 10). The cytotoxic activity of PBMCs acquired after the sixth vaccination was measured according to the in vitro test described in Example 3. […] Therefore, in the eighth and later vaccinations, three kinds of emulsions each of which contains SART-1690 (SEQ ID NO: 4), Lck488 (SEQ ID NO: 2) or Lck208 (SEQ ID NO: 1) and an adjuvant were prepared according to the method described in Example 1 and used.
After the vaccinations, PBMCs derived from the patient were studied for their peptide-specific cytotoxic activity by ^51Cr-release test using C1R-A24 cells pulsed with the peptides used. […] On the other hand, their cytotoxic activity was extremely low against RPMI-8226 that is an HLA-A24^− myeloid cell line.

| Compound | peptide-specific IFN-γ production ([2]; PBMCs of patient #1 CLL) | peptide-specific IFN-γ production ([2]; PBMCs of patient #2 CLL) | peptide-specific IFN-γ production ([2]; PBMCs of patient #3 MCL) | peptide-specific IFN-γ production ([2]; PBMCs of patient #4 NHL) | peptide-specific IFN-γ production ([2]; PBMCs of patient #5 B-ALL) | peptide-specific IFN-γ production ([2]; PBMCs of patient #6 MM) | peptide-specific IFN-γ production ([2]; PBMCs of patient #7 MDS) | peptide-specific IFN-γ production ([2]; PBMCs of patient #8 ATL) | peptide-specific IFN-γ production ([2]; PBMCs of patient #9 ATL) | peptide-specific IFN-γ production ([2]; PBMCs of patient #10 T-ALL) | Responding case/total (enhancement of IFN-γ production) [2] | peptide-specific cytotoxic activity of PBMCs [5] | further results |
| --- | --- | --- | --- | --- | --- | --- | --- | --- | --- | --- | --- | --- | --- |
| CSCC[C@H](NC(=O)[C@H](Cc1ccccc1)NC(=O)[C@@H](NC(=O)[C@@H]1CCCN1C(=O)CNC(=O)[C@H](Cc1ccc(O)cc1)NC(=O)[C@@H](N)[C@@H](C)O)C(C)C)C(=O)N[C@@H](CS)C(=O)N[C@@H](CC(C)C)C(=O)O [EBV, reference compound] |  |  |  |  |  |  |  |  |  |  |  |  | cytotoxic activity (% lysis) against HLA-A24+ hematologic malignant line ([1]; listed as EBV derive peptides): not observed; cytotoxic activity (% lysis) against HLA-A24+ hematologic malignant line ([1]; listed as EBV-derived peptide): exhibited no cytotoxic activity; cytotoxic activity (% lysis) against HLA-A24+ hematologic malignant line ([1]; listed as Epstein-Barr virus (EBV)-derived peptide): exhibited no cytotoxic activity |
| SART-3315: SART-3-derived peptide; epithelial cancer-related antigen peptide (AYIDFEMKI; Partial peptide of SART-3) | 39 | 137 | 6 | 0 | 11 | 0 | 0 | 22 | 60 | 6 | 1/10 |  |  |
| TFDYLRSVL [Lck486] |  |  |  |  |  |  |  |  |  |  |  |  | cytotoxic activity (% lysis) against HLA-A24+ hematologic malignant line [1]: significant cytotoxic activity; also recorded: exhibited cytotoxic activity; cytotoxic activity (% lysis) against HLA-A24- hematologic malignant line [3]: did not show cytotoxic activity; also recorded: did not exhibit cytotoxic activity; cytotoxic activity (% lysis) against HLA-A24+ PHA blastoid T-cells [4]: did not show cytotoxic activity; also recorded: did not exhibit cytotoxic activity |
| SYTRLFLIL [SART-2899] |  |  |  |  |  |  |  |  |  |  |  |  | cytotoxic activity (% lysis) against HLA-A24+ hematologic malignant line [1]: significant cytotoxic activity; cytotoxic activity (% lysis) against HLA-A24- hematologic malignant line [3]: did not show cytotoxic activity; cytotoxic activity (% lysis) against HLA-A24+ PHA blastoid T-cells [4]: did not show cytotoxic activity |
| SART-1690: SART-1-derived peptide; epithelial cancer-related antigen peptide (EYRGFTQDF; Partial peptide of SART-1) | 0 | 486 | 0 | 53 | 8 | 141 | 0 | 55 | 155 | 26 | 3/10 | observed |  |
| RYLRDQQLLGI [HIV, reference compound] |  |  |  |  |  |  |  |  |  |  |  |  | cytotoxic activity (% lysis) against HLA-A24+ hematologic malignant line ([1]; listed as HIV-derived peptide): not observed; cytotoxic activity (% lysis) against HLA-A24+ hematologic malignant line ([1]; listed as human immunodeficiency virus (HIV)-derived peptide): exhibited no cytotoxic activity |
| Lck208: p56lck protein-derived peptide, N-terminal residue at position 208; epithelial cancer-related antigen peptide (HYTNASDGL; Partial peptide of p56lck protein) | 0 | 2 | 22 | 30 | 0 | 0 | 0 | 0 | 445 | 153 | two and 2/10 | observed | cytotoxic activity (% lysis) against C1R-A24 cells pulsed with corresponding peptide [5]: enhanced induction of cytotoxic activity |
| Lck488: p56lck protein-derived peptide; epithelial cancer-related antigen peptide (DYLRSVLEDF; Partial peptide of p56lck protein) | 0 | 0 | 0 | 0 | 6 | 182 | 102 | 476 | 304 | 0 | four and 4/10 | observed | cytotoxic activity (% lysis) against C1R-A24 cells pulsed with corresponding peptide [5]: enhanced induction of cytotoxic activity |
